Where “and” joins values, the source holds several entries; their conditions need not be identical. Identical values can stand only once.
Key:
FVIII-deficient plasma = assay: Thrombin generation assay in FVIII-deficient plasma; assay type: biochemical; conditions: 100 nM TM, 2 μg/ml heparan sulfate
Protocol: (§1) (A) Representative thrombin generation curves in FVIII-deficient and FIX-deficient plasma performed in the presence of heparan sulfate (2 μg/ml), TM (100 nM) and varying concentrations of DrKIn-I (●, 0 nM; ▪, 20 nM; ▴, 40 nM; ▾, 80 nM; ◯, 200 nM). Dashed lines represent thrombin generation in the absence of TM and DrKIn-I. (B-C) Activity in FVIII-deficient (B) and FIX-deficient (C) plasma. Left panels show ETP; right panels, peak thrombin. For comparison, dashed lines represent the activity of normal plasma containing TM and heparan sulfate in the absence of the inhibitor. Results are represented as means±SEM of at least three independent experiments.
(§2) Briefly, 80 μl of either normal plasma, protein C-deficient plasma, FVIII-deficient plasma or FIX deficient plasma containing 2 μM corn trypsin inhibitor, 2 μg/ml heparan sulfate (four disaccharide units long), 30 μM DOPC/DOPS/DOPE (60:20:20) and 100 nM recombinant TM was incubated with 20 μl of 500-fold diluted TF solution (Innovin; Dade Behring) in the absence or presence of the indicated concentrations of DrKIn-I. Following incubation for 3 minutes at 37° C., thrombin generation was initiated by the dispensation of 20 μl of 2.5 mM fluorogenic substrate (Z-Gly-Gly-Arg-AMC.HCl) dissolved in 0.15 M NaCl, 60 mg/ml BSA and 100 mM CaCl2. […] Results were evaluated using the Technothrombin TGA software (Technoclone).

FIX-deficient plasma = assay: Thrombin generation assay in FIX-deficient plasma; assay type: biochemical; conditions: 100 nM TM, 2 μg/ml heparan sulfate
Protocol: as §1, §2

protein C zymogen (PC) = protein C zymogen (PC) (Homo sapiens, UniProt P04070); assay: Surface plasmon resonance, immobilized protein C zymogen; assay type: binding; conditions: DrKIn-I 31.25, 62.5, 125 nM
Protocol: (§3) A: 70 μg of DrKIn-I in 0.1 ml equilibrating buffer (20 mM Tris-HCl, pH 8.0) was applied to a 5 ml HiTrap Heparin column and eluted with a 50 ml gradient from 0.0-1.0 M NaCl. The salt concentration corresponding to the elution peak was determined to be 0.95 M. B, Binding of DrKIn-I (0.78, 1.56, 2.34, 3.13, 4.68 and 6.25 nM) to immobilized APC was assessed in buffer containing 10 mM HEPES, 0.15 M NaCl, 3 mM EDTA and 0.05% P20 at a flow rate of 60 μl/min at 25° C. […] The thin lines represent the global fit to the response data. […] Results shown are means±SD of three experiments. Representative binding traces are shown.
(§4) Biacore T200 (GE Healthcare) was used for analysis. APC or PC dissolved in 10 mM acetate buffer (pH 5.0) was immobilized on a CM5 sensor chip to a response unit (RU) of 1000 with an amine coupling kit. Associations and dissociations of DrKIn-I were performed in 10 mM HEPES (N-2-hydroxyethylpiperazine-N′-2-ethanesulfonic acid; pH 7.4), 150 mM NaCl, 3 mM EDTA (ethylenediaminetetraacetic acid) and 0.05% P20 with a flow rate of 60 μl/min. The sensor surface was regenerated with 90 μl of 2 M MgCl2 and the signals obtained were subtracted by that obtained from the reference channel that had not been coated with ligands. Binding kinetics were determined by global fitting to 1:1 Langmuir binding model using the Biaevaluation software (GE Healthcare).

plasmin = assay: Euglobulin clot lysis assay; assay type: biochemical
[1] = tested on: endogenously generated APC in normal plasma; assay: Thrombin generation assay in normal plasma; assay type: biochemical; conditions: 200 nM DrKIn-I, 100 nM TM, 2 μg/ml heparan sulfate
Protocol: Thrombin generation in normal (A) and protein C-deficient (B) plasma. Experiments were performed in the presence of heparan sulfate (2 μg/ml). Solid lines represent thrombin generation in the presence of 100 nM thrombomodulin (TM) and varying concentrations of DrKIn-I (●, 0 nM; ▪, 40 nM; ▴, 80 nM; ◯, 200 nM). Dashed lines represent thrombin generation in the absence of TM and DrKIn-I.
Briefly, 80 μl of either normal plasma, protein C-deficient plasma, FVIII-deficient plasma or FIX deficient plasma containing 2 μM corn trypsin inhibitor, 2 μg/ml heparan sulfate (four disaccharide units long), 30 μM DOPC/DOPS/DOPE (60:20:20) and 100 nM recombinant TM was incubated with 20 μl of 500-fold diluted TF solution (Innovin; Dade Behring) in the absence or presence of the indicated concentrations of DrKIn-I. Following incubation for 3 minutes at 37° C., thrombin generation was initiated by the dispensation of 20 μl of 2.5 mM fluorogenic substrate (Z-Gly-Gly-Arg-AMC.HCl) dissolved in 0.15 M NaCl, 60 mg/ml BSA and 100 mM CaCl2. Measurements were taken at 1 minute intervals on a SpectraMax M2^e Microplate Reader using an excitation wavelength of 360 nm and an emission wavelength of 460 nm. In some assays, experiments were performed in the absence of thrombomodulin. Results were evaluated using the Technothrombin TGA software (Technoclone).

APC = APC (Homo sapiens, UniProt P04070); assay: Surface plasmon resonance, immobilized APC; assay type: binding; parameters: purchased Haematologic Technologies; conditions: no heparin
Protocol: A: 70 μg of DrKIn-I in 0.1 ml equilibrating buffer (20 mM Tris-HCl, pH 8.0) was applied to a 5 ml HiTrap Heparin column and eluted with a 50 ml gradient from 0.0-1.0 M NaCl. […] The thin lines represent the global fit to the response data. […] Results shown are means±SD of three experiments. Representative binding traces are shown.
as §4, with “The sensor surface was regenerated with 90 μl of 2 M MgCl2 and the signals obtained were subtracted by that obtained from the reference channel that had not been coated with ligands.” left out

[2] = tested on: APC in FIX-deficient plasma; assay: APTT-based APC resistance assay in FIX-deficient plasma; assay type: biochemical; conditions: 50-200 nM DrKIn-I, 40 nM APC, 2 μg/ml heparan sulfate
Protocol: APTT-based clotting times were measured in normal, FVIII-deficient and FIX-deficient plasma containing 2 μg/ml heparan sulfate in the presence or absence of 40 nM APC and the indicated concentrations of DrKIn-I. Results shown are means±S.D. of at least three experiments.
50 μl of normal plasma, FVIII-deficient plasma or FIX-deficient plasma supplemented with 2 μg/ml heparan sulfate (four disaccharide units long) was exposed to APC (40 nM) and varying concentrations of DrKIn-I (50-200 nM). 50 μl of activated partial thromboplastin (APTT) reagent (HYPHEN Biomed) was added and incubated for 1 minute at 37° C. Finally, clotting was initiated by adding 50 μl of 20 mM CaCl2. Coagulation times, which reflect the activities of APC, were recorded on a coagulometer (Hemostasis Analyzer KC-1; Sigma Diagnostics).

[3] = Heparin binding assay (HiTrap Heparin column, NaCl gradient); conditions: 0.0-1.0 M NaCl gradient, 20 mM Tris-HCl pH 8.0
Protocol: as §3

DrKIn-I (CGGNDNNFETRKKCRQTCGAPRKGRPT)
DrKIn-I concentration correcting ETP to normal levels (FVIII-deficient plasma): 60 nM | DrKIn-I concentration correcting peak thrombin to normal levels (FVIII-deficient plasma): 130 nM | DrKIn-I concentration correcting ETP to normal levels (FIX-deficient plasma): 160 nM | peak thrombin level relative to normal plasma (partial correction) (FIX-deficient plasma): approximately 85% | binding to immobilized protein C zymogen (protein C zymogen (PC)): No binding was observed | prolongation of euglobulin clot lysis time (plasmin; 20 nM inhibitor): failed to prolong the clot lysis time | prolongation of euglobulin clot lysis time (plasmin; 100 nM inhibitor): approximately an hour | thrombin generation [1]: thrombin generation reached that observed in the absence of APC activity | association rate constant (APC; 1:1 Langmuir model): 1.3±0.8×10^7 M^−1 s^−1 and ~1.3×10^7 M^−1 s^−1 and 1.7×10^7 M^−1 s^−1 | dissociation rate constant (APC; 1:1 Langmuir model): 3.4±2.2×10^−2 s^−1 | Kd (APC; 25° C.): ~2.6 nM | clotting time [2]: dose-dependently decreased the clotting time | NaCl concentration at elution from heparin column [3]: 0.95 M
